{
  "source": "patent US11377441B2",
  "about": "“Covalent inhibitors of KRAS” (Araxes Pharma LLC, priority 2017, dated 2022)",
  "data": [
    {"target": "T1, KRAS G12C 1-169, his-tagged protein, GDP-loaded (Homo sapiens, UniProt P01116, G12C)", "T1 construct": "KRAS G12C 1-169, his-tagged protein, GDP-loaded", "assay": "Biochemical assay: covalent modification of KRAS G12C measured by mass spectrometry (RapidFire/TOF or Q-Exactive)", "format": "binding", "conditions": "covalent binding to (modification of) KRAS G12C after a ten minute incubation period", "method": "Test compounds were prepared as 10 mM stock solutions in DMSO (Fisher cat #BP-231-100). KRAS G12C 1-169, his-tagged protein, GDP-loaded is diluted to 2 μM or 0.5 μM in buffer (20 mM Hepes, 150 mM NaCl, 1 mM MgCl2). Compounds were tested for activity as follows:\nCompounds were diluted to 50× final test concentration in DMSO in 96-well storage plates. Compound stock solutions were vortexed before use and observed carefully for any sign of precipitation. Dilutions are as follow: • For 100 μM final compound concentration, compounds were diluted to 5000 μM (5 μL 10 mM compound stock+5 μL DMSO and mixed well by pipetting. • For 30 μM final compound concentration, compounds were diluted to 1500 μM (3 μL 10 mM compound stock+17 μL DMSO) and mixed well by pipetting. • For 10 μM final compound concentration, compounds were diluted to 500 μM (2 μL 10 mM compound stock+38 μL DMSO) and mixed well by pipetting. 49 μL of the stock protein solution was added to each well of a 96-well PCR plate (Fisher cat #1423027). 1 μL of the diluted 50× compounds were added to appropriate wells in the PCR plate using 12-channel pipettor. Reactions were mixed carefully and thoroughly by pipetting up/down with a 200 μL multi-channel pipettor. The plate was sealed well with aluminum plate seal, and stored in drawer at room temperature for 10 minutes, 30 minutes, 2 hours or 24 hours. 5 μL of 2% formic acid (Fisher cat #A117) in de-ionized H2O was then added to each well followed by mixing with a pipette. The plate was then resealed with aluminum seal and stored on dry ice until analyzed as described below.\nThe above described assays were analyzed by mass spectrometry according to one of the following two procedures:\nThe MS instrument was set to positive polarity, 2 GHz resolution, and low mass (1700) mode and allowed to equilibrate for 30 minutes. The instrument was then calibrated, switched to acquisition mode and the appropriate method loaded.\nAfter another 30 minute equilibration time, a blank batch (i.e., buffer) was run to ensure equipment is operating properly. The samples were thawed at 37° C. for 10 minutes, briefly centrifuged, and transfer to the bench top. Wells A1 and H12 were spiked with 1 μL 500 μM internal standard peptide, and the plates centrifuged at 2000×g for 5 minutes. The method was then run and masses of each individual well recorded.\nThe masses (for which integration data is desired) for each well were pasted into the platemap and exported from the analysis. Masses for the internal standards were exported as well. The data at 50 ppm was extracted for the +19 charge state, and identity of well A1 was assigned using the internal standard spike and integrated. Peak data was exported as a TOF list and the above steps were repeated individually, for the +20, 21, 22, 23, 24, and 25 charge states.\nThe masses and peak intensities of KRAS G12C protein species were measured using a Dionex RSLCnano system (Thermo Scientific) connected to a Q Exactive Plus mass spectrometer (Thermo Scientific).\n[…] of sample was each loaded onto a Aeris™ 3.6 μm WIDEPORE C4 200 Å, LC Column 50×2.1 mm column maintained at 40° C. at a flow rate of 600 μL/min with 20% Solvent A (0.1% formic acid in H2O) and […] (0.1% formic acid in acetonitrile). The liquid chromatography conditions were 20% solvent B for 1 minute, 20% to 60% solvent B for 1.5 minutes, 60% to 90% solvent for 0.5 minute, 90% solvent B for 0.2 minute, 90% to 20% solvent B for 0.2 minute, and then equilibrated for 1.6 minutes before the following sample injection. The flow rate was maintained at 600 μL/min throughout the sample analysis.\nThe mass spectrometer was operated in profile mode at a resolution of 17500, 5 microscans, using 50 msec max injection time and an AGC target of 1×10^6, and a full mass range from 800-1850 m/z was recorded. The HCD trapping gas was optimized for maximum sensitivity for intact proteins. […]", "values": [
      {"smiles": "C=CC(=O)N1C[C@H](C)N(c2nc(NC3CCN(C4CC4)CC3)nc3c(F)c(-c4c(C)ccc5[nH]nc(C6CC6)c45)c(Cl)cc23)C[C@H]1C", "note": "(atropisomer, axis not shown) [Compound 110, 1-((2R,5S)-4-((S)-6-chloro-7-(3-cyclopropyl-5-methyl-1H-indazol-4-yl)-2-(1-cyclopropylpiperidin-4-ylamino)-8-fluoroquinazolin-4-yl)-2,5-dimethylpiperazin-1-yl)prop-2-en-1-one]", "Binding %": "+ (+ indicates binding activity greater than 0% and up to 50%)"},
      {"smiles": "C=CC(=O)N1C[C@H](C)N(c2nc(N3CC(N(C)C)C3)nc3c(F)c(-c4ccc(F)c5[nH]ncc45)c(Cl)cc23)C[C@H]1C", "note": "[Compound 29, 1-((2R,5S)-4-(6-chloro-2-(3-(dimethylamino)azetidin-1-yl)-8-fluoro-7-(7-fluoro-1H-indazol-4-yl)quinazolin-4-yl)-2,5-dimethylpiperazin-1-yl)prop-2-en-1-one]", "Binding %": "+ (+ indicates binding activity greater than 0% and up to 50%)"},
      {"smiles": "C=CC(=O)N1C[C@H](C)N(c2nc(N3CC(N(C)C)C3)nc3c(F)c(-c4c(C)ccc5[nH]nc(Cl)c45)c(Cl)cc23)C[C@H]1C", "note": "[Compound 23, 1-((2R,5S)-4-(6-chloro-7-(3-chloro-5-methyl-1H-indazol-4-yl)-2-(3-(dimethylamino)azetidin-1-yl)-8-fluoroquinazolin-4-yl)-2,5-dimethylpiperazin-1-yl)prop-2-en-1-one]", "Binding %": "+++ (+++ indicates binding activity greater than 80%)"},
      {"smiles": "C=CC(=O)N1C[C@H](C)N(c2nc(NCCCN(C)C)nc3c(F)c(-c4c(C)ccc5[nH]nc(N)c45)c(Cl)cc23)C[C@H]1C", "note": "[Compound 63, 1-((2R,5S)-4-(7-(3-amino-5-methyl-1H-indazol-4-yl)-6-chloro-2-(3-(dimethylamino)propyl-amino)-8-fluoroquinazolin-4-yl)-2,5-dimethylpiperazin-1-yl)prop-2-en-1-one]", "Binding %": "++ (++ indicates binding activity from 50 to 80%)"},
      {"smiles": "C=CC(=O)N1C[C@H](C)N(c2nc(N3CC(NC)C3)nc3c(F)c(-c4c(C)ccc5[nH]nc(C)c45)c(Cl)cc23)C[C@H]1C", "note": "(atropisomer, axis not shown) [Compound 219, 1-((2R,5S)-4-((S)-6-chloro-7-(3,5-dimethyl-1H-indazol-4-yl)-8-fluoro-2-(3-(methylamino)azetidin-1-yl)quinazolin-4-yl)-2,5-dimethylpiperazin-1-yl)prop-2-en-1-one]", "Binding %": "+ (+ indicates binding activity greater than 0% and up to 50%)"},
      {"smiles": "C=CC(=O)N1C[C@H](C)N(c2nc(OC[C@@H]3CCCN3C)nc3c(F)c(-c4c(C)ccc5cnn(C)c45)c(Cl)cc23)C[C@H]1C", "note": "(atropisomer, axis not shown) [Compound 234, 1-((2R,5S)-4-((S)-6-chloro-7-(1,6-dimethyl-1H-indazol-7-yl)-8-fluoro-2-(((S)-1-methylpyrrolidin-2-yl)methoxy)quinazolin-4-yl)-2,5-dimethylpiperazin-1-yl)prop-2-en-1-one]", "Binding %": "++ (++ indicates binding activity from 50 to 80%)"},
      {"smiles": "C=CC(=O)N1C[C@@H](C)N(c2nc(N3CC(N(C)C)C3)nc3c(F)c(-c4c(C)ccc5cnn(C)c45)c(Cl)cc23)C[C@H]1C", "note": "(atropisomer, axis not shown) [Compound 243, 1-((2R,5R)-4-((R)-6-chloro-7-(1,6-dimethyl-1H-indazol-7-yl)-2-(3-(dimethylamino)azetidin-1-yl)-8-fluoroquinazolin-4-yl)-2,5-dimethylpiperazin-1-yl)prop-2-en-1-one]", "Binding %": "+++ (+++ indicates binding activity greater than 80%)"},
      {"smiles": "C=CC(=O)N1C[C@H](C)N(c2nc(OC[C@@H]3CN(C)CCO3)nc3c(F)c(-c4c(C)ccc5[nH]nc(C6CC6)c45)c(Cl)cc23)C[C@H]1C", "note": "[Compound 187, 1-((2R,5S)-4-(6-chloro-7-(3-cyclopropyl-5-methyl-1H-indazol-4-yl)-8-fluoro-2-(((S)-4-methylmorpholin-2-yl)methoxy)quinazolin-4-yl)-2,5-dimethylpiperazin-1-yl)prop-2-en-1-one]", "Binding %": "+++ (+++ indicates binding activity greater than 80%)"},
      {"smiles": "C=CC(=O)N1C[C@@H](C)N(c2nc(N3CC(N(C)C)C3)nc3c(F)c(-c4c(C)ccc5cnn(C)c45)c(Cl)cc23)C[C@@H]1C", "note": "(atropisomer, axis not shown) [Compound 246, 1-((2S,5R)-4-((R)-6-chloro-7-(1,6-dimethyl-1H-indazol-7-yl)-2-(3-(dimethylamino)azetidin-1-yl)-8-fluoroquinazolin-4-yl)-2,5-dimethylpiperazin-1-yl)prop-2-en-1-one]", "Binding %": "+ (+ indicates binding activity greater than 0% and up to 50%)"},
      {"smiles": "C=CC(=O)N1C[C@H](C)N(c2nc(N3CC(N(C)C)C3)nc3c(F)c(-c4c(F)ccc5cnn(C6CC6)c45)c(Cl)cc23)C[C@H]1C", "note": "[Compound 200, 1-((2R,5S)-4-(6-chloro-7-(1-cyclopropyl-6-fluoro-1H-indazol-7-yl)-2-(3-(dimethylamino)azetidin-1-yl)-8-fluoroquinazolin-4-yl)-2,5-dimethylpiperazin-1-yl)prop-2-en-1-one]", "Binding %": "+ (+ indicates binding activity greater than 0% and up to 50%)"},
      {"smiles": "C=CC(=O)N1C[C@H](C)N(c2nc(OC[C@@H]3CCCN3CC3CC3)nc3c(F)c(-c4c(C)ccc5cnn(C)c45)c(Cl)cc23)C[C@H]1C", "note": "[Compound 239, 1-((2R,5S)-4-(6-chloro-2-(((S)-1-(cyclopropylmeth-yl)pyrrolidin-2-yl)methoxy)-7-(1,6-dimethyl-1H-indazol-7-yl)-8-fluoroquinazolin-4-yl)-2,5-dimethylpiperazin-1-yl)prop-2-en-1-one]", "Binding %": "+++ (+++ indicates binding activity greater than 80%)"},
      {"smiles": "C=CC(=O)N1CCN(c2nc(N3CC(N(C)C)C3)nc3c(F)c(-c4c(C)ccc5[nH]nc(C6CC6)c45)c(Cl)cc23)C[C@H]1C", "note": "(atropisomer, axis not shown) [Compound 102, 1-((R)-4-((R)-6-chloro-7-(3-cyclopropyl-5-methyl-1H-indazol-4-yl)-2-(3-(dimethylamino)azetidin-1-yl)-8-fluoroquinazolin-4-yl)-2-methylpiperazin-1-yl)prop-2-en-1-one]", "Binding %": "+++ (+++ indicates binding activity greater than 80%)"},
      {"smiles": "C=CC(=O)N1CCN(c2nc(N3CC(N(C)C)C3)nc3c(F)c(-c4c(C)ccc5cnn(C)c45)c(Cl)cc23)C[C@H]1C", "note": "(atropisomer, axis not shown) [Compound 143, 1-((R)-4-((S)-6-chloro-7-(1,6-dimethyl-1H-indazol-7-yl)-2-(3-(dimethylamino)azetidin-1-yl)-8-fluoroquinazolin-4-yl)-2-methylpiperazin-1-yl)prop-2-en-1-one]", "Binding %": "+ (+ indicates binding activity greater than 0% and up to 50%)"},
      {"smiles": "C=CC(=O)N1C[C@H](C)N(c2nc(N3CC(N(C)C)C3)nc3c(F)c(-c4cccc5snc(C)c45)c(Cl)cc23)C[C@H]1C", "note": "[Compound 157, 1-((2R,5S)-4-(6-chloro-2-(3-(dimethylamino)azetidin-1-yl)-8-fluoro-7-(3-methylbenzo[d]isothia-zol-4-yl)quinazolin-4-yl)-2,5-dimethylpiperazin-1-yl)prop-2-en-1-one]", "Binding %": "+++ (+++ indicates binding activity greater than 80%)"}
    ]}
  ]
}
